The source of these data is patent publication US12545640B2, “Substituted 6,7-dihydro-5H-benzo[7]annulene compounds, processes for their preparation and therapeutic uses thereof” (SANOFI, priority 2019, dated 2026).

The assay addresses T1, ERα (Homo sapiens, UniProt P03372).
T1 construct: host or cells: MCF7 cells
T1 sequence (P03372 1-595): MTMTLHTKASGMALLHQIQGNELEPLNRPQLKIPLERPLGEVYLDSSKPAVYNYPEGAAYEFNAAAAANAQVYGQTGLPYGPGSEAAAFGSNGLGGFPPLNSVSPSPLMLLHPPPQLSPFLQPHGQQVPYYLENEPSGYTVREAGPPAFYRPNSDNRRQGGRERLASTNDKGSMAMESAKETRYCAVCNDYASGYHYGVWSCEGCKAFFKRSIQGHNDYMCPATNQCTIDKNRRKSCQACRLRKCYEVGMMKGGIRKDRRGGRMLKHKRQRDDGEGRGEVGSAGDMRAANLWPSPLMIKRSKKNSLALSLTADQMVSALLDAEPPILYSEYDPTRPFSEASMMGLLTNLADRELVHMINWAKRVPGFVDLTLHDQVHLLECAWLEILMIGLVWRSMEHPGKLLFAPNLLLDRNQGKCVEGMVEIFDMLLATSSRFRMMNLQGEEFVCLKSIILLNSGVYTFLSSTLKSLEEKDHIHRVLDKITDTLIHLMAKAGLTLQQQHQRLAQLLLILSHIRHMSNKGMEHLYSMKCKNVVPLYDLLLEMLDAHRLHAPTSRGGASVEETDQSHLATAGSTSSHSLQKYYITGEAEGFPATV
The experiment in a line: Estrogen receptor degradation activity: breast cancer cell ERα in cell western assay (MCF7 cells). Conditions: 4 hours, final concentrations ranging from 3-0.000018 μM, relative to fulvestrant 0.1 μM positive control. In kind it is cell-based. On the procedure:
Test: Estrogen Receptor Degradation Activity
Said test involves measuring the in vitro degradation activity of the compounds of the invention.
The measurements of the degradation activities were made using a breast cancer cell ERα in cell western assay as described hereunder.
MCF7 cells (ATCC) were seeded in 384 wells microplate (collagen coated) at a concentration of 10000 cells/30 μL, per well in red phenol free MEM alpha medium (invitrogen) containing 5% charcoal dextran striped FBS. The following day, 9 points serial 1:5 dilution of each compound was added to the cells in 2.5 μL at final concentrations ranging either from 3-0.000018 μM (column «% Degradation at 3 μM in table 2) or from 0.3-0.0000018 μM (column «% Degradation at 0.3 μM in table 2), or 0.1 μM for fulvestrant (using as positive control). At 4 hours post compound addition the cells were fixed by adding 25 μL of formalin (final concentration 5% formalin containing 0.1% triton) for 10 minutes at room temperature and then washed twice with PBS. Then, 50 μL of LI-COR blocking buffer containing 0.1% Triton was added to plate for 30 minutes at room temperature. LI-COR blocking buffer was removed and cells were incubated overnight at cold room with 50 μL anti-ER rabbit monoclonal antibody (Thermo scientific MA1-39540) diluted at 1:1000 in LI-COR blocking buffer containing 0.1% tween-20. Wells which were treated with blocking buffer but no antibody were used as background control. Wells were washed twice with PBS (0.1% tween-20) and incubated at 37° C. for 60 minutes in LI-COR (0.1% tween-20) containing goat anti-rabbit antibody Alexa 488 (1:1000) and Syto-64 a DNA dye ([…]). Cells were then washed 3 times in PBS and scanned in ACUMEN explorer (TTP-Labtech). Integrated intensities in the green fluorescence and red fluorescence were measured to determine the levels of ERα and DNA respectively.
Regarding `CC1(C)OB(c2ccc3c(c2)CCCC(c2ccc(Cl)cc2Cl)=C3c2ccc(O[C@H]3CCN(CCCF)C3)cc2)OC1(C)C` [Example 1, (S)-3-(4-(8-(2,4-dichlorophenyl)-3-(4,4,5,5-tetramethyl-1,3,2-dioxaborolan-2-yl)-6,7-dihydro-5H-benzo[7]annulen-9-yl)phenoxy)-1-(3-fluoropropyl)pyrrolidine], the “% Degradation At 3 μM” value came out at 86%. The same measure for `NC(=O)c1ccc2c(c1)CCCC(c1ccc(Cl)cc1Cl)=C2c1ccc(O[C@H]2CCN(CCCF)C2)cc1` [Example 3, (S)-8-(2,4-dichlorophenyl)-9-(4-((1-(3-fluoropropyl)pyrrolidin-3-yl)oxy)phenyl)-6,7-dihydro-5H-benzo[7]annulene-3-carboxamide]: 95%; for `Oc1cc(-c2ccc3c(c2)CCCC(c2ccc(Cl)cc2Cl)=C3c2ccc(O[C@H]3CCN(CCCF)C3)cc2)on1` [Example 4, (S)-5-(8-(2,4-dichlorophenyl)-9-(4-((1-(3-fluoropropyl)pyrrolidin-3-yl)oxy)phenyl)-6,7-dihydro-5H-benzo[7]annulen-3-yl)isoxazol-3-ol]: 87%.

`OC(c1ccc2c(c1)CCCC(c1ccc(Cl)cc1Cl)=C2c1ccc(O[C@H]2CCN(CCCF)C2)cc1)C(F)F` (stereo partly drawn) [Example 5, 1-(8-(2,4-dichlorophenyl)-9-(4-(((S)-1-(3-fluoropropyl)pyrrolidin-3-yl)oxy)phenyl)-6,7-dihydro-5H-benzo[7]annulen-3-yl)-2,2-difluoroethan-1-ol]: the “% Degradation At 3 μM” value was 93%. With `NNC(=O)c1ccc2c(c1)CCCC(c1ccc(Cl)cc1Cl)=C2c1ccc(O[C@H]2CCN(CCCF)C2)cc1` [Example 6, (S)-8-(2,4-dichlorophenyl)-9-(4-((1-(3-fluoropropyl)pyrrolidin-3-yl)oxy)phenyl)-6,7-dihydro-5H-benzo[7]annulene-3-carbohydrazide], the “% Degradation At 3 μM” value is on record as 88%.

For the compound `FCCCN1CC[C@H](Oc2ccc(C3=C(c4ccc(Cl)cc4Cl)CCCc4cc(-c5nnco5)ccc43)cc2)C1` [Example 7, (S)-2-(8-(2,4-dichlorophenyl)-9-(4-((1-(3-fluoropropyl)pyrrolidin-3-yl)oxy)phenyl)-6,7-dihydro-5H-benzo[7]annulen-3-yl)-1,3,4-oxadiazole], the “% Degradation At 3 μM” value was determined as 86%. Under `FCCCN1CC[C@H](Oc2ccc(C3=C(c4ccc(Cl)cc4Cl)CCCc4cc(-c5nncs5)ccc43)cc2)C1` [Example 9, (S)-2-(8-(2,4-dichlorophenyl)-9-(4-((1-(3-fluoropropyl)pyrrolidin-3-yl)oxy)phenyl)-6,7-dihydro-5H-benzo[7]annulen-3-yl)-1,3,4-thiadiazole] stands 79%; under `OC(c1ccc2c(c1)CCCC(c1ccc(Cl)cc1Cl)=C2c1ccc(O[C@H]2CCN(CCCF)C2)cc1)C(F)(F)F` (stereo partly drawn) [Example 10, 1-(8-(2,4-dichlorophenyl)-9-(4-(((S)-1-(3-fluoropropyl)pyrrolidin-3-yl)oxy)phenyl)-6,7-dihydro-5H-benzo[7]annulen-3-yl)-2,2,2-trifluoroethan-1-ol], 92%; under `O=c1cc(-c2ccc3c(c2)CCCC(c2ccc(Cl)cc2Cl)=C3c2ccc(O[C@H]3CCN(CCCF)C3)cc2)[nH][nH]1` [Example 12, (S)-5-(8-(2,4-dichlorophenyl)-9-(4-((1-(3-fluoropropyl)pyrrolidin-3-yl)oxy)phenyl)-6,7-dihydro-5H-benzo[7]annulen-3-yl)-1,2-dihydro-3H-pyrazol-3-one], 83%. Under `O=C1CC(c2ccc3c(c2)CCCC(c2ccc(Cl)cc2Cl)=C3c2ccc(O[C@H]3CCN(CCCF)C3)cc2)=NO1` [Example 13, (S)-3-(8-(2,4-dichlorophenyl)-9-(4-((1-(3-fluoropropyl)pyrrolidin-3-yl)oxy)phenyl)-6,7-dihydro-5H-benzo[7]annulen-3-yl)isoxazol-5(4H)-one] stands 76%. The same measure for `NC(=O)NNC(=O)c1ccc2c(c1)CCCC(c1ccc(Cl)cc1Cl)=C2c1ccc(O[C@H]2CCN(CCCF)C2)cc1` [Example 14, (S)-2-(8-(2,4-dichlorophenyl)-9-(4-((1-(3-fluoropropyl)pyrrolidin-3-yl)oxy)phenyl)-6,7-dihydro-5H-benzo[7]annulene-3-carbonyl)hydrazine-1-carboxamide]: 90%; for `CS(=O)(=O)NC(=O)c1ccc2c(c1)CCCC(c1ccc(Cl)cc1Cl)=C2c1ccc(O[C@H]2CCN(CCCF)C2)cc1` [Example 15, (S)-8-(2,4-dichlorophenyl)-9-(4-((1-(3-fluoropropyl)pyrrolidin-3-yl)oxy)phenyl)-(methylsulfonyl)-6,7-dihydro-5H-benzo[7]annulene-3-carboxamide]: 90%. Consider `FCCCN1CC[C@H](Oc2ccc(C3=C(c4ccc(Cl)cc4Cl)CCCc4cc(-c5nn[nH]n5)ccc43)cc2)C1` [Example 16, (S)-5-(8-(2,4-dichlorophenyl)-9-(4-((1-(3-fluoropropyl)pyrrolidin-3-yl)oxy)phenyl)-6,7-dihydro-5H-benzo[7]annulen-3-yl)-2H-tetrazole], for which the “% Degradation At 3 μM” value is on record as 86%. The same measure for `O=C(Nc1nn[nH]n1)c1ccc2c(c1)CCCC(c1ccc(Cl)cc1Cl)=C2c1ccc(O[C@H]2CCN(CCCF)C2)cc1` [Example 17, (S)-8-(2,4-dichlorophenyl)-9-(4-((1-(3-fluoropropyl)pyrrolidin-3-yl)oxy)phenyl)-N-(2H-tetrazol-5-yl)-6,7-dihydro-5H-benzo[7]annulene-3-carboxamide]: 84%. As to `O=C(NO)c1ccc2c(c1)CCCC(c1ccc(Cl)cc1Cl)=C2c1ccc(O[C@H]2CCN(CCCF)C2)cc1` [Example 18, (S)-8-(2,4-dichlorophenyl)-9-(4-((1-(3-fluoropropyl)pyrrolidin-3-yl)oxy)phenyl)-N-hydroxy-6,7-dihydro-5H-benzo[7]annulene-3-carboxamide], the “% Degradation At 3 μM” value is 85%. As to `CONC(=O)c1ccc2c(c1)CCCC(c1ccc(Cl)cc1Cl)=C2c1ccc(O[C@H]2CCN(CCCF)C2)cc1` [Example 19, (S)-8-(2,4-dichlorophenyl)-9-(4-((1-(3-fluoropropyl)pyrrolidin-3-yl)oxy)phenyl)-N-methoxy-6,7-dihydro-5H-benzo[7]annulene-3-carboxamide], the “% Degradation At 3 μM” value is listed as 86%. Under `O=C(O)/C=C/c1ccc2c(c1)CCCC(c1ccc(Cl)cc1Cl)=C2c1ccc(O[C@H]2CCN(CCCF)C2)cc1` [Example 20, (S,E)-3-(8-(2,4-dichlorophenyl)-9-(4-((1-(3-fluoropropyl)pyrrolidin-3-yl)oxy)phenyl)-6,7-dihydro-5H-benzo[7]annulen-3-yl)acrylic acid] stands 85%. As for `FCCCN1CC[C@H](Oc2ccc(C3=C(c4ccc(Cl)cc4Cl)CCCc4cc(-c5cn[nH]c5)ccc43)cc2)C1` [Example 21, (S)-4-(8-(2,4-dichlorophenyl)-9-(4-((1-(3-fluoropropyl)pyrrolidin-3-yl)oxy)phenyl)-6,7-dihydro-5H-benzo[7]annulen-3-yl)-1H-pyrazole], the “% Degradation At 3 μM” value is 78%. For the compound `N#Cc1ccc2c(c1)CCCC(c1ccc(Cl)cc1Cl)=C2c1ccc(O[C@H]2CCN(CCCF)C2)cc1` [Example 22, (S)-8-(2,4-dichlorophenyl)-9-(4-((1-(3-fluoropropyl)pyrrolidin-3-yl)oxy)phenyl)-6,7-dihydro-5H-benzo[7]annulene-3-carbonitrile], the “% Degradation At 3 μM” value stood at 82%. Under `FCCCN1CC[C@H](Oc2ccc(C3=C(c4ccc(OC(F)(F)F)cc4)CCCc4cc(-c5cn[nH]c5)ccc43)cc2)C1` [Example 23, (S)-4-(9-(4-((1-(3-fluoropropyl)pyrrolidin-3-yl)oxy)phenyl)-8-(4-(trifluoromethoxy)phenyl)-6,7-dihydro-5H-benzo[7]annulen-3-yl)-1H-pyrazole] stands 74%.
